Laboratory results from patent US20250002854A1, “METHODS OF GENERATING POPULATIONS OF TUMOUR-INFILTRATING T CELLS” (LYTIX BIOPHARMA AS, priority 2016, published 2025).
Square brackets hold non-standard residues; d marks the D form. Ends that are not written are not given here. Dip = N[C@H](C(=O)O)C(c1ccccc1)c1ccccc1

What was measured:
[1] = test system: rat transformed mesenchymal stem cell-derived sarcoma (rTMSC); assay: Immunohistochemistry of rat rTMSC tumours; type: in vivo; details: primary and secondary tumor tissues
Description: Pre-cultured rat transformed mesenchymal stem cell-derived sarcoma model cells (rTMSCs) were harvested in serum free RPMI-1640 and 200,000 rTMSCs were subcutaneously inoculated in the right flank into PVG rats on day ÷2 and 20,000 rTMSCs in the opposite flank on day 0. Established tumours (25 mm^2 mean tumour size) were injected intralesionally with LTX-315 (dissolved in sterile H2O with 0.9% NaC ) (n=8) or with vehicle (sterile H2O with 0.9% NaCl) (n=6). Treatment doses of LTX-315, 50 μl at […] (1 mg), were given using a 1 ml syringe (Myjector U-100, Terumo) needle 0.5×16 mm (Fine-Ject; Henke-Sass, Wolf GmbH. Injections were provided daily for three subsequent days. Tumour size was measured three times a week using a caliper and expressed as the area of an ellipse [(maximum dimension/2)×(minimum dimension/2)]. Animals were terminated when the tumor exceeded 400 mm^2.
Formalin-fixed and paraffin-embedded tissue sections were deparaffinized in xylene and graded alcohols, hydrated and washed in PBS. After antigen retrieval in sodium citrate buffer (pH 6) in a microwave oven, the endogenous peroxidase was blocked by 0.3% H2O2 for 15 min. Sections were incubated overnight at 4° C. with primary antibody; rabbit polyclonal anti-CD3 (clone A0452 Dako) or mouse monoclonal anti-CD8 (clone OX8, ab33786, Abcam). […]

B16F1 cells [2] = assay: Secondary tumour challenge of animals cured by LTX-315; type: in vivo, C57BL/6 mice
Description: Tumour cells were harvested, washed in RPMI-1640 and injected intradermally (i.d.) into the right side of the abdomen in C57BL/6 mice (5×10^4 B16F1 cells per mouse/50 μl RPMI-1640). Palpable tumours (20-30 mm^2) were injected i.t. with single doses of LTX-315 or LTX-328 dissolved in saline (1.0 mg peptide/50 μl saline) once a day for 3 consecutive days, and the vehicle control was saline only (0.9% NaCl in sterile H2O). Tumour size was measured using an electronic caliper and expressed as the area of an ellipse [(maximum dimension/2)×(minimum dimension/2)×π]. Animals were then euthanized when the product of the perpendicular tumour dimensions reached 130 mm^2 or when tumour ulceration developed. […] Animals surviving the i.d. tumour re-challenge were later given a second tumour rechallenge intravenously (i.v.) (2×10^5 cells) through the tail vein. Lungs were harvested on day 19 after the i.v. re-challenge. All mice were monitored for tumour size and survival.

Murine B16 melanoma = assay: immunoSEQ TCR repertoire characterisation after intratumoural LTX-315; type: in vivo, mice
Description: This study was carried out using an “immunoSEQ™” T cell receptor (TCR) repertoire characterisation platform by Adaptive Biotechnologies™. The platform combines novel multiplex PCR1 with highly optimized primer sets and deep sequencing techniques that exclusively target TCR genes. The immunoSEQ platform enables researchers to analyse the adaptive immune system with exceptional depth and specificity.
Murine B16 melanoma cells were harvested, washed and injected intradermally in ten mice. 8 days after tumour injection, peptide treatment was initiated using single intratumoural injections of LTX-315 (1.0 mg LTX-315/50 μl saline) once or twice in five mice. Vehicle control of saline only (0.9% NaCl in sterile H2O) was administered to the other five mice. Animals were then euthanized on day 15.
Tumour tissue (10 mg) and whole blood (150-200 μl) was taken from each mouse for TCR repertoire characterisation analysis. Blood samples provide information regarding the immune repertoire in the periphery, whilst the tumour samples provide a focused view of the repertoire.
Sequence analysis was carried out by Adaptive Biotechnologies™ at a survey-level resolution with respect to the tissue samples and at a deep-level resolution with respect to the blood samples.
Clonality quantitates the extent of mono-or oligoclonal expansion by measuring the shape of the clone frequency distribution. Values range from 0 to 1, where values approaching 1 indicate a nearly monoclonal population. FIG. 15 provides example distribution curves of populations with a clonality of 0.05 (A) and of 0.32 (B).

B16F1 cells [3] = assay: Release of HMGB1 (Western blot); type: cell-based, murine; details: 108 μM
Description: B16F1 cells were seeded at a density of 2×10^5 cells/well in 6-well plates in a complete medium, and allowed to adhere overnight. Cells were treated with 108 μM of LTX-401 (4×IC50^4h), and incubated at 37° C. (>95% humidity and 5% CO2) for different time points (10, 30, 60, 90 and 120 minutes). Serum-free RPMI 1640 was used as a negative control, and supernatants (S) were collected and centrifuged at 1,400 g for 5 min before being up-concentrated using Amicon Ultra-0.5 Centrifugal Filter units with Ultracel-50 membrane (Milipore, Norway). Cell lysates (L) were harvested after washing with 2 mL of serum-free RPMI-1640 and subjected to a lysis buffer (mastermix) containing 2×NuPAGE LDS Sample buffer (Invitrogen, Norway), a 1×NuPAGE Sample Reducing Agent (Invitrogen, Norway) and 50% sterile H20. Both supernatants and lysates were boiled at 70° C. for 10 min and resolved on NuPAGE Novex 4-12% Bis-Tris Gels (Millipore, Norway) before being electrotransferred to a polyvindiline difluoride (PVDF) membrane (Millipore, Norway). […]

B16F1 cells [4] = assay: LysoTracker DND-26, flow cytometry and confocal microscopy; type: cell-based, murine; details: 27 μM, 60 minutes
Description: Flow cytometry: B16F1 cells were seeded in 6-well plates and allowed to adhere overnight. […] Untreated cells were used as a control. Cells were trypsinized and investigated on a FACS Calibur Flow cytometer, and the results were processed using FlowJo Software (Tree Star, Inc., Ashland, OR, USA). PI was utilized in some experiments to gate away cells with compromised plasma membrane.
Confocal microscopy: B16F1 cells were seeded in 8-well plates (Nunc) at 1×10^4 cells/well and allowed to adhere overnight. Next, cells were treated with 27 μM of LTX-401 for 60 minutes and labelled with LysoTracker DND-26 for 5 minutes and with Hoecsht33342 for nuclear staining. Cells were immediately investigated on a Zeiss Confocal microscope with a controlled temperature and atmosphere.

With “K-K-W-W-K-K-W-Dip-K-NH2 (KKWWKKW[Dip]K-NH2) [LTX-315]” the “infiltration of CD3+ and CD8+ cells (immunohistochemistry)” value [1] was “increased infiltration of CD3^+ and CD8^+ cells”, the “animals with no tumour take” value (B16F1 cells [2]; i.d. re-challenge) was 60% and the “animals with tumour growth absent” value (B16F1 cells [2]; i.d. re-challenge with B16F1 cells 4-5 weeks after CR) was 15 out of the 25. For the same compound, the “CD3+ T cell infiltration of lung tumour foci” value (B16F1 cells [2]; i.v. re-challenge, histology) was “significantly more infiltrated by CD3+ T cells”, the “mean # tumour foci (lung)” value (B16F1 cells [2]; i.v. re-challenge, n=7) was 15.86 and the “TCR Template Molecules” value (Murine B16 melanoma; Blood) was 135,283. For the same compound, the “TCRs (T cell estimate) per nucleated cell (%)” value (Murine B16 melanoma; Blood) was 17.4%, the “Unique TCRs” value (Murine B16 melanoma; Blood) was 116,120 and the “TCR Template Molecules” value (Murine B16 melanoma; Tissue (tumour)) was 12,331.

With `Cl.Cl.NCCNC(=O)C(CN)(CCCc1ccccc1)CCCc1ccccc1` [LTX-401] the “time at which HMGB1 translocation was absolute” value (B16F1 cells [3]) was 90 min, the “time at which release of HMGB1 occurs” value (B16F1 cells [3]) was 30 min and the “LysoTracker DND-26 signal” value (B16F1 cells [4]) was “induced a decreased signal”.
